Results as given in patent publication US8008484B2 (priority 2004, dated 2011).

Legend:
[1] = test system: Cucumber (variety: SAGAMI HANPAKU); assay: Phytotoxicity studied in the Botrytis cinerea foliage test; type: in vivo; conditions: cucumber seedlings, foliar spray, 500 ppm
Procedure: Cucumber (variety: SAGAMI HANPAKU) was cultivated in a plastic pot of 4 cm diameter. A diluted solution of an active compound of the prescribed concentration, prepared in a similar manner as in the above-mentioned Test Example 1, was sprayed to seedlings reached to cotyledon in an amount of 6 ml per 2 pots. One day after the spraying, an inoculant, prepared by mixing a suspension of artificially cultured spores of Botrytis cinerea and agar gel (2×10^4 spores/ml gel), was placed on cotyledons to inoculate and infected in a moisture box kept at 20° C. Four days after the inoculation, the contraction rate per cotyledon was classified and evaluated according to the following standard to obtain the controlling value (%). Phytotoxicity was also studied at the same time. This test is an average of the results of 2 sections 4 cotyledons.

[2] = test system: Paddy rice (variety: KOSIHIKARI); conditions: foliar spray, 500 ppm

COc1cc(OC)nc(C(O)c2cc(C)cc(F)c2NS(=O)(=O)C(F)F)n1 (racemic) [Compound 4-107]
Phytotoxicity [1]: No phytotoxicity was observed

COc1cc(OC)nc(C(O)c2cc(C)cc(Cl)c2NS(=O)(=O)C(F)F)n1 (racemic) [Compound 4-130]
Phytotoxicity [2]: No phytotoxicity was observed
Phytotoxicity [1]: No phytotoxicity was observed

COc1cc(OC)nc(C(O)c2ccc(F)c(C)c2NS(=O)(=O)C(F)F)n1 (racemic) [Compound 4-184]
Phytotoxicity [2]: No phytotoxicity was observed

COc1cc(OC)nc(C(O)c2ccc(F)cc2NS(=O)(=O)C(F)F)n1 (racemic) [Compound 4-186]
Phytotoxicity [1]: No phytotoxicity was observed

COc1cc(OC)nc(C(O)c2ccc(C)c(C)c2NS(=O)(=O)C(F)F)n1 (racemic) [Compound 4-187]
Phytotoxicity [1]: No phytotoxicity was observed

COc1cc(OC)nc(C(O)c2cc(C)cc(F)c2NS(=O)(=O)CC(F)(F)F)n1 (racemic) [Compound 12-131]
Phytotoxicity [2]: No phytotoxicity was observed

COc1cc(OC)nc(C(O)c2ccc(F)c(C)c2NS(=O)(=O)CC(F)(F)F)n1 (racemic) [Compound 12-137]
Phytotoxicity [2]: No phytotoxicity was observed

COc1cc(OC)nc(C(SC)c2cccc(F)c2NS(=O)(=O)C(F)F)n1 (stereo not shown) [Compound 1-14]
Phytotoxicity [1]: No phytotoxicity was observed

COc1cc(OC)nc(Cc2ccccc2NS(=O)(=O)C(F)F)n1 [Compound 2-1]
Phytotoxicity [1]: No phytotoxicity was observed

COc1cc(OC)nc(Cc2cccc(F)c2N(C(C)=O)S(=O)(=O)C(F)F)n1 [Compound 2-18]
Phytotoxicity [1]: No phytotoxicity was observed

COc1cc(OC)nc(Cc2cccc(Cl)c2N(C(C)=O)S(=O)(=O)C(F)F)n1 [Compound 2-31]
Phytotoxicity [2]: No phytotoxicity was observed
Phytotoxicity [1]: No phytotoxicity was observed

COC(=O)N(c1c(Cl)cccc1Cc1nc(OC)cc(OC)n1)S(=O)(=O)C(F)F [Compound 2-32]
Phytotoxicity [2]: No phytotoxicity was observed

COc1cc(OC)nc(Cc2ccc(F)cc2NS(=O)(=O)C(F)F)n1 [Compound 2-61]
Phytotoxicity [2]: No phytotoxicity was observed

COc1cc(OC)nc(Cc2cc(F)ccc2NS(=O)(=O)C(F)F)n1 [Compound 2-62]
Phytotoxicity [2]: No phytotoxicity was observed

COc1cc(OC)nc(Cc2ccc(F)c(F)c2NS(=O)(=O)C(F)F)n1 [Compound 2-110]
Phytotoxicity [1]: No phytotoxicity was observed

COc1cc(OC)nc(Cc2cc(F)c(Cl)c(F)c2NS(=O)(=O)C(F)F)n1 [Compound 2-125]
Phytotoxicity [2]: No phytotoxicity was observed

COc1cc(OC)nc(Cc2c(Cl)ccc(Cl)c2NS(=O)(=O)C(F)F)n1 [Compound 2-138]
Phytotoxicity [1]: No phytotoxicity was observed

COc1cc(OC)nc(Cc2cc(C)c(F)cc2NS(=O)(=O)C(F)F)n1 [Compound 2-190]
Phytotoxicity [2]: No phytotoxicity was observed

COc1cc(OC)nc(Cc2cccc(Cl)c2N(C(=O)C2CC2)S(=O)(=O)C(F)F)n1 [Compound 2-191]
Phytotoxicity [2]: No phytotoxicity was observed
Phytotoxicity [1]: No phytotoxicity was observed

COc1cc(OC)nc(Cc2cc(C)cc(C)c2NS(=O)(=O)C(F)F)n1 [Compound 2-192]
Phytotoxicity [1]: No phytotoxicity was observed

COc1cc(OC)nc(Cc2ccc(F)c(C)c2NS(=O)(=O)C(F)F)n1 [Compound 2-193]
Phytotoxicity [2]: No phytotoxicity was observed

COc1cc(OC)nc(C(=O)c2cccc(Cl)c2N(C(C)=O)S(=O)(=O)C(F)F)n1 [Compound 3-22]
Phytotoxicity [2]: No phytotoxicity was observed

COc1cc(OC)nc(C(=O)c2cccc(F)c2NS(=O)(=O)C(F)F)n1 [Compound 9-25]
Phytotoxicity [1]: No phytotoxicity was observed

COc1cc(OC)nc(C(=O)c2cccc(Cl)c2NS(=O)(=O)C(F)F)n1 [Compound 9-26]
Phytotoxicity [1]: No phytotoxicity was observed

COc1nc(OC)nc(C(=O)c2ccccc2NS(=O)(=O)C(F)F)n1 [Compound 9-48]
Phytotoxicity [1]: No phytotoxicity was observed

COc1cc(OC)nc(C(Cl)c2cccc(F)c2NS(=O)(=O)C(F)(F)F)n1 (stereo not shown) [Compound 12-127]
Phytotoxicity [2]: No phytotoxicity was observed

COc1cc(OC)nc(Cc2cccc(F)c2NS(=O)(=O)C(Cl)Cl)n1 [Compound 12-136]
Phytotoxicity [1]: No phytotoxicity was observed

COc1cc(OC)nc(Cc2ccc(F)c(C)c2NS(=O)(=O)CC(F)(F)F)n1 [Compound 13-8]
Phytotoxicity [1]: No phytotoxicity was observed

COc1cc(OC)nc(Cc2ccccc2NS(=O)(=O)C(F)(F)F)n1 [Compound 14-2]
Phytotoxicity [1]: No phytotoxicity was observed

COc1cc(OC)nc(Cc2cccc(F)c2NS(=O)(=O)CCl)n1 [Compound 14-8]
Phytotoxicity [1]: No phytotoxicity was observed

COc1cc(OC)nc(Cc2cccc(Cl)c2NS(=O)(=O)C(F)(F)F)n1 [Compound 14-20]
Phytotoxicity [1]: No phytotoxicity was observed

COc1cc(OC)nc(Cc2cccc(Cl)c2NS(=O)(=O)CC(F)(F)F)n1 [Compound 14-22]
Phytotoxicity [1]: No phytotoxicity was observed

COc1cc(OC)nc(Cc2cccc(Cl)c2NS(=O)(=O)C(F)F)n1 [Compound 14-35]
Phytotoxicity [1]: No phytotoxicity was observed

COc1cc(OC)nc(Cc2cccc(C)c2NS(=O)(=O)C(F)F)n1 [Compound 14-37]
Phytotoxicity [2]: No phytotoxicity was observed
Phytotoxicity [1]: No phytotoxicity was observed

COCc1c(F)ccc(Cc2nc(OC)cc(OC)n2)c1NS(=O)(=O)C(F)F [Compound 14-40]
Phytotoxicity [1]: No phytotoxicity was observed

COc1cc(OC)nc(C(O)c2cccc(F)c2NS(C)(=O)=O)n1 (stereo not shown) [Compound 18-2]
Phytotoxicity [2]: No phytotoxicity was observed

COc1cc(OC)nc(C(O)c2cccc(F)c2NS(=O)(=O)CCl)n1 (stereo not shown) [Compound 18-6]
Phytotoxicity [2]: No phytotoxicity was observed
Phytotoxicity [1]: No phytotoxicity was observed

COc1cc(OC)nc(C(O)c2cccc(F)c2NS(=O)(=O)CC(F)(F)F)n1 (stereo not shown) [Compound 18-10]
Phytotoxicity [2]: No phytotoxicity was observed
Phytotoxicity [1]: No phytotoxicity was observed

COc1cc(OC)nc(C(O)c2ccccc2NS(=O)(=O)C(F)(F)F)n1 (stereo not shown) [Compound 18-20]
Phytotoxicity [1]: No phytotoxicity was observed

COc1cc(OC)nc(C(O)c2cccc(F)c2NS(=O)(=O)C(F)(F)F)n1 (stereo not shown) [Compound 18-21]
Phytotoxicity [2]: No phytotoxicity was observed

COc1cc(OC)nc(C(O)c2ccccc2NS(=O)(=O)C(F)F)n1 (stereo not shown) [Compound 18-24]
Phytotoxicity [2]: No phytotoxicity was observed
Phytotoxicity [1]: No phytotoxicity was observed

COc1cc(OC)nc(C(O)c2cccc(F)c2NS(=O)(=O)C(F)F)n1 (stereo not shown) [Compound 18-25]
Phytotoxicity [1]: No phytotoxicity was observed

COc1cc(OC)nc(C(O)c2cccc(Cl)c2NS(=O)(=O)C(F)F)n1 (stereo not shown) [Compound 18-26]
Phytotoxicity [1]: No phytotoxicity was observed

COc1nc(OC)nc(C(O)c2cccc(F)c2NS(=O)(=O)C(F)F)n1 (stereo not shown) [Compound 18-51]
Phytotoxicity [1]: No phytotoxicity was observed

COc1nc(OC)nc(C(O)c2cccc(C)c2NS(=O)(=O)C(F)F)n1 (stereo not shown) [Compound 18-53]
Phytotoxicity [2]: No phytotoxicity was observed
